In ChEMBL document CHEMBL1212713, “Molecular docking and ligand specificity in fragment-based inhibitor discovery” (Nat Chem Biol, 2009) one finds inhibition and Ki data, which are given here for 104 molecules.

The source made the active and inactive calls.

The first test in a line: Inhibition of beta lactamase CTX-M assessed as hydrolysis of beta lactam up to 5 mM by spectrometry analysis.
Consider `O=C(O)C[C@@H]1NC(=O)[C@H](Cc2ccccc2)NC1=O`, for which the inhibition result was “inactive”.

Regarding `C=C1C(=O)OC=C1C(=O)O`, the inhibition entry is “inactive”.

On to `O=C(O)c1cnc(O)cc1O`, for which the inhibition result is “inactive”.

For `Cc1cc(O)nc(O)c1C(=O)O`, the inhibition entry was “inactive”.

On to `O=C(O)c1ccc(=O)[nH]n1`, for which the inhibition result is “inactive”.

For the molecule `NS(=O)(=O)c1cccc(C(=O)O)c1`, the inhibition result is “inactive”.

`CC(=O)Nc1nc(C(=O)O)cs1`: the inhibition entry is “inactive”.

For the molecule `CS(=O)(=O)c1cccc(C(=O)O)c1`, the inhibition entry is “inactive”.

Regarding `Cc1ccc(NC(=O)/C=C/C(=O)O)cc1`, the inhibition result is “inactive”.

Take `O=C(O)c1ccc(Cl)c(N2CCCC2=O)c1`: the inhibition entry was “inactive”.

Consider `Cc1ccc(NC(=O)[C@H]2CCC(=O)N2)c(C)c1`, for which the inhibition entry is “inactive”.

As to `CC(=O)C1=C(O)C(O)N([C@@H](C)C(=O)O)[C@H]1c1ccccc1` (some centres not stated), the inhibition entry is “inactive”.

For the molecule `O=C(O)[C@@H]1CNC(Cc2ccc(Cl)cc2)=N1`, the inhibition entry is “inactive”.

For the molecule `O=C(O)[C@@H]1C[C@H]1C(=O)N1CCc2ccccc21`, the inhibition entry is “inactive”.

`O=C(Nc1nncs1)c1ccccc1F`: the inhibition entry is “inactive”.

Turning to `C[C@@H](NC(=O)CNC(=O)CN)C(=O)O`, the inhibition result was “inactive”.

Consider `O=C(O)[C@H]1CC(=O)N(C2CCCC2)C1`, for which the inhibition result was “inactive”.

As to `O=C(O)c1cccc(-c2nc3ccccc3[nH]2)c1`, the inhibition result was “inactive”.

With `O=C(O)c1c[nH]c(=O)[nH]c1=O`, the inhibition result was “inactive”.

With `Cc1[nH]c(C(=O)O)c(C)c1[C@H](C)O`, the inhibition entry was “inactive”.

Regarding `O=C(O)[C@@H](Cc1ccco1)P(=O)(O)CN1CCOCC1`, the inhibition result is “inactive”.

In the case of `C[C@H]1Cc2ccccc2N1C(=O)CSc1nnnn1C1CCCC1`, the inhibition entry is “inactive”.

Consider `Cc1ccc(C(=O)NCC(=O)O)s1`, for which the inhibition entry was “inactive”.

`O=C(O)c1ccccc1C(=O)c1ccc2c(c1)CCC2`: the inhibition entry is “inactive”.

For `CC(=O)Nc1sccc1C(=O)O`, the inhibition entry was “inactive”.

Consider `Cc1onc(C(N)=O)c1C(=O)Nc1nccs1`, for which the inhibition entry was “inactive”.

Regarding `Cc1cc(C)c2nc(CC(=O)O)[nH]c2c1`, the inhibition entry is “inactive”.

Turning to `O=C(O)Cc1ccc(C(=O)c2cccs2)s1`, the inhibition result was “inactive”.

In the case of `Cc1ccc(-n2nc(C(N)=O)c(=O)cc2C)cc1`, the inhibition entry was “inactive”.

For `O=C(O)c1ccc(=O)oc1`, the inhibition result is “inactive”.

As for `O=C(O)c1cccc(S(=O)(=O)Nc2ccccc2O)c1`, the inhibition result is “inactive”.

Take `O=C(O)c1ccc(Cl)c(N2C(=O)c3ccccc3C2=O)c1`: the inhibition entry is “inactive”.

Consider `O=C(O)c1cc(=O)c2cc(F)ccc2o1`, for which the inhibition entry is “inactive”.

Consider `Cc1cc(C)cc(N2C[C@@H](C(=O)O)CC2=O)c1`, for which the inhibition result was “inactive”.

For the molecule `CC(=O)Nc1ccc(Sc2ccccc2C(=O)O)c(C(=O)O)c1`, the inhibition result is “inactive”.

For `O=C(O)c1sc(C(=O)O)c(-c2ccco2)c1-c1ccco1`, the inhibition entry is “inactive”.

Regarding `COc1ccc(C(=O)O)cc1S(=O)(=O)N1CCCCCC1`, the inhibition entry was “inactive”.

As to `Cc1ccc(NC(=O)CSc2nnc(CCC(=O)O)c(=O)[nH]2)cc1`, the inhibition entry is “inactive”.

Regarding `O=C(O)CNC(=O)c1cccc2ccccc12`, the inhibition result is “inactive”.

Consider `O=C(O)c1cccc(OCc2cn3ccccc3n2)c1`, for which the inhibition entry was “inactive”.

Turning to `C[C@@H](Oc1cc(O)c2c(=O)cc(-c3ccccc3)oc2c1)C(=O)O`, the inhibition entry is “inactive”.

Take `O=C(O)C[C@H](NO)c1ccccc1`: the inhibition result was “inactive”.

Take `O=C1C=CC(=O)C(c2cccc(C(=O)O)c2)=C1`: the inhibition entry was “inactive”.

In the case of `Cc1ccoc1C(=O)NCc1occc1C(=O)O`, the inhibition entry was “inactive”.

With `O=C(O)CN1C(=O)c2ccc(F)cc2C1=O`, the inhibition entry was “inactive”.

Take `O=C(O)C[C@H](C(=O)NCc1ccccc1)c1ccccc1`: the inhibition entry is “inactive”.

For `O=C(O)c1cc(=O)cc2n1CCNC2=O`, the inhibition result is “inactive”.

As to `O=C(O)[C@@H]1C(=O)NC[C@H]1c1ccccc1`, the inhibition entry was “inactive”.

Take `CCCOc1ccc([C@H](CC(=O)O)NC(=O)c2ccc(F)cc2)cc1`: the inhibition entry was “inactive”.

For the molecule `N#Cc1ccsc1NC(=O)c1ccccn1`, the inhibition result is “inactive”.

As to `CC(C)(C)c1ccc([C@@H](CC(=O)O)NC(=O)c2ccccc2F)cc1`, the inhibition entry was “inactive”.

For `Cc1ccccc1C(=O)N[C@@H](C)C(=O)O`, the inhibition result is “inactive”.

Take `O=C(O)C[C@@H](NC(=O)c1ccccc1F)c1ccc2c(c1)OCO2`: the inhibition entry was “inactive”.

On to `C[C@@H]1C[C@H](C)CN(S(=O)(=O)c2cccc(C(=O)O)c2)C1`, for which the inhibition entry is “inactive”.

For `Cc1oncc1C(=O)O`, the inhibition result is “inactive”.

On to `O=C(O)C1CC(O)CN1` (configuration not stated), for which the inhibition result is “inactive”.

Turning to `O=C1C[C@H](C(=O)O)c2ccccc21`, the inhibition entry was “inactive”.

Turning to `O=C(O)C[C@@H]1C(=O)NC(=S)N1c1ccccc1`, the inhibition result was “inactive”.

On to `O=C(O)c1ccnc([C@@H]2CCCCC2=O)c1`, for which the inhibition entry was “inactive”.

On to `O=C(O)[C@@H]1C[C@@H](C(=O)O)N1`, for which the inhibition result is “inactive”.

Turning to `CC(=O)Nc1ccc(OS(=O)(=O)c2cccc(C(=O)O)c2)cc1`, the inhibition entry was “inactive”.

As for `O=C(O)Cc1cc(=O)[nH]c2ccccc12`, the inhibition entry was “inactive”.

Regarding `CCOC(=O)c1c(C(=O)O)[nH]c(C(=O)OCc2ccccc2)c1C`, the inhibition entry is “inactive”.

For the molecule `O=C(O)c1cccc(N2C(=O)c3ccc(Br)cc3C2=O)c1`, the inhibition result was “inactive”.

Consider `CCC(=O)Nc1ccccc1C(=O)C(=O)O`, for which the inhibition result was “inactive”.

With `O=C(O)c1cccc(COc2ccc(CO)cc2)c1`, the inhibition result was “inactive”.

As for `Cc1cc(C(=O)Nc2ccc(CC(=O)O)cc2)c(C)o1`, the inhibition entry was “inactive”.

Consider `CC(=O)c1c(O)c(C(=O)O)c(C)oc1=O`, for which the inhibition result is “inactive”.

With `Cc1ccc(N[C@H](CC(=O)c2ccccc2)C(=O)O)cc1C`, the inhibition entry is “inactive”.

`O=C(O)c1cccc(S(=O)(=O)Nc2ccccn2)c1`: the inhibition result is “inactive”.

For `O=C(O)[C@H]1C[C@H](O)CN1Cc1ccccc1`, the inhibition entry was “inactive”.

With `O=C(O)c1n[nH]c2c1CCC2`, the inhibition entry was “inactive”.

Consider `CC(=O)NCC(=O)O`, for which the inhibition entry was “inactive”.

In the case of `O=C(Nc1nncs1)c1ccccc1O`, the inhibition entry was “inactive”.

Take `O=CNc1ccccc1C(=O)O`: the inhibition entry is “inactive”.

With `C[C@H](NC(=O)c1ccccc1Cl)C(=O)O`, the inhibition entry was “inactive”.

In the case of `O=C(O)/C=C/c1ccc(O)c(O)c1`, the inhibition entry was “inactive”.

As for `C=C(CC)N/N=C1\NC(=O)[C@H](CC(=O)O)S1`, the inhibition entry was “inactive”.

In the case of `O=C1C=CC(=O)[C@@H]2CC=C[C@@H](C(=O)O)[C@H]12`, the inhibition entry is “inactive”.

In the case of `O=C(CC1=NO[C@H](c2ccccc2O)N1)N1CCCC1`, the inhibition result is “inactive”.

For `O=C1C=C(O)[C@@H](C(=O)O)[C@H](c2ccccc2)C1`, the inhibition result is “inactive”.

`Cc1cc(C(=O)NCc2oc(C(C)(C)C)cc2C(=O)O)c(C)o1`: the inhibition entry was “inactive”.

For the molecule `Cc1cc(C)cc(NC(=O)N(CCC(=O)O)Cc2ccccc2)c1`, the inhibition entry is “inactive”.

Consider `O=C(O)Cn1cnc2ccccc21`, for which the inhibition result is “inactive”.

As for `Cc1oc(S(=O)(=O)N2CCCCC2)cc1C(=O)O`, the inhibition result is “inactive”.

For the molecule `O=C(O)Cc1ccccc1O`, the inhibition entry was “inactive”.

Regarding `O=C(O)c1cn(S(=O)(=O)c2ccccc2)c2ccccc12`, the inhibition result is “inactive”.

Turning to `O=C(O)CC(=O)Nc1ccccc1`, the inhibition result was “inactive”.

For `C[C@H]1CCc2n[nH]c(C(=O)O)c2C1`, the inhibition result is “inactive”.

For `O=C1NC(=O)[C@H](Nc2ccccc2C(=O)O)S1`, the inhibition entry was “inactive”.

As for `O=C(O)c1ccccc1N[C@H](C(=O)O)c1ccccc1`, the inhibition result was “inactive”.

With `O=C(O)CSc1nc(O)cc(O)n1`, the inhibition result is “inactive”.

In the case of `O=C(O)[C@H]1[C@H](C(=O)NCCO)[C@H]2C=C[C@H]1C2`, the inhibition result is “inactive”.

With `O=C(O)/C=C/c1ccc(O)cc1`, the inhibition result was “inactive”.

A further test in a line: Inhibition of beta lactamase CTX-M assessed as hydrolysis of beta lactam by spectrometry analysis.
Take `Nc1sc2c(c1-c1nn[nH]n1)CCCC2`: the Ki – broadly, the dissociation constant of the complex between target and ligand, obtained from inhibition or displacement – was determined as 3000 µM.

Take `O=C1C=C(S(=O)(=O)O)c2ccccc2C1=O`: the Ki is 1000 µM.

Regarding `c1ccc(COc2cccc(-c3nn[nH]n3)c2)cc1`, the Ki was 1000 µM.

In the case of `Cn1cc(C(=O)Nc2cccc(-c3nn[nH]n3)c2)c2ccccc21`, the Ki came to 10 µM.

For the molecule `O=C(O)CN1C(=O)O[C@@H](c2ccccc2)C1=O`, the Ki is 700 µM.

Regarding `O=C1C[C@H](S(=O)(=O)O)c2ccccc2C1=O`, the Ki was found to be 700 µM.

With `O=C(Nc1cccc(-c2nn[nH]n2)c1)[C@H](Sc1ccccc1)c1ccccc1`, the inhibition constant Ki worked out at 12 µM.

The next test can be described thus: Inhibition of beta lactamase AmpC assessed as hydrolysis of beta lactam by spectrometry analysis.
On to `O=C(O)CN1C(=O)O[C@@H](c2ccccc2)C1=O`, for which the Ki amounted to 3500 µM.

A further test in a line: Inhibition of beta lactamase CTX-M assessed as hydrolysis of beta lactam at 250 uM by spectrometry analysis.
Regarding `CC(=O)Nc1cc(NC(C)=O)cc(C(=O)Nc2cccc(-c3nn[nH]n3)c2)c1`, the inhibition entry is “Active”.

With `Cn1cc(C(=O)Nc2cccc(-c3nn[nH]n3)c2)c2ccccc21`, the inhibition entry is “Active”.

On to `Cc1nc2cc(C(=O)Nc3cccc(-c4nn[nH]n4)c3)ccc2n1-c1ccccc1`, for which the inhibition entry is “Active”.

In the case of `O=C(Nc1cccc(-c2nn[nH]n2)c1)c1csc2c1CCCC2`, the inhibition entry is “Active”.

As to `O=C(Nc1cccc(-c2nn[nH]n2)c1)[C@H](Sc1ccccc1)c1ccccc1`, the inhibition entry was “Active”.
